Laboratory results published in patent publication US9624217B2, “Dihydropyrrolopyridine inhibitors of ROR-gamma” (Vitae Pharmaceuticals, Inc., priority 2014, dated 2017).

Experiments:
[1] = molecular target: recombinant RORγ Ligand Binding Domain (LBD) (Homo sapiens (Human), UniProt P51449); test: Radio-Ligand RORγ Binding Assay (Assay 1); details: SPA competition with 25-hydroxy [26,27-3H]-cholesterol, cell-free; read-out: RORγ Binding Ki Range
Method: Radio-Ligand RORγ Binding Assay (Assay 1)
Compounds of the present invention were tested for ability to bind to RORγ in a cell-free competition assay with commercially available radio-ligand (RL), 25-hydroxy [26,27-^3H]-cholesterol (PerkinElmer, Cat. #NET674250UC), for a ligand binding site on a recombinant RORγ Ligand Binding Domain (LBD) protein expressed as a 6×His-Glutathione-S-Transferase (GST) fusion. […] The plate was shaken at 700 rpm for 20 min and incubated for 10 min at rt, after which 40 μL of poly-Lys YSi SPA beads (PerkinElmer, Cat. #RPNQ0010) were added to achieve 50 μg of the beads per well. The plate was incubated on an orbital shaker for 20 min and then for 10 min without agitation at rt. SPA signal for tritium beta radiation was registered on PerkinElmer Microbeta plate reader. […] The percent inhibition vs. concentration data were fit into a four-parameter model, and IC50 values were calculated from the fit as the concentrations corresponding to the inflection points on the dose-response curves.

[2] = molecular target: full-length RORγt (Homo sapiens (Human), UniProt P51449); test: RORγt 5×RORE Assay in Jurkat Cells (Assay 2); format: cell-based; details: secreted Nanoluc luciferase 5×RORE reporter, 16-18 hrs, read-out: RORγt5X IC50 Range
Method: [formula] RORγt 5×RORE Assay in Jurkat Cells (Assay 2)
Compounds of the present invention were tested for RORγ inverse agonist activity in a cell-based, transcriptional activity assay. […] (Promega, Cat. #N1021) using KpnI and HindIII restriction sites. […] Luciferase activity in the conditioned supernatants was determined with NanoGlo® assay reagents (Promega, Cat. #N1130).

recombinant RORγ Ligand Binding Domain (LBD), sequence (P51449 269-508): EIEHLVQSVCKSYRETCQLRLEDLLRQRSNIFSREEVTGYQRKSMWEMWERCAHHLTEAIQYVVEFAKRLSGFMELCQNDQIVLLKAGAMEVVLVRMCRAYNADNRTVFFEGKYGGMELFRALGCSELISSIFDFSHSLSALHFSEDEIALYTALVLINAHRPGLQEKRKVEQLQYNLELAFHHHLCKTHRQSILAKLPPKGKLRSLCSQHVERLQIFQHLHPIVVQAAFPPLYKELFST
full-length RORγt, sequence (P51449 other isoform, or with tags, fused parts or gaps): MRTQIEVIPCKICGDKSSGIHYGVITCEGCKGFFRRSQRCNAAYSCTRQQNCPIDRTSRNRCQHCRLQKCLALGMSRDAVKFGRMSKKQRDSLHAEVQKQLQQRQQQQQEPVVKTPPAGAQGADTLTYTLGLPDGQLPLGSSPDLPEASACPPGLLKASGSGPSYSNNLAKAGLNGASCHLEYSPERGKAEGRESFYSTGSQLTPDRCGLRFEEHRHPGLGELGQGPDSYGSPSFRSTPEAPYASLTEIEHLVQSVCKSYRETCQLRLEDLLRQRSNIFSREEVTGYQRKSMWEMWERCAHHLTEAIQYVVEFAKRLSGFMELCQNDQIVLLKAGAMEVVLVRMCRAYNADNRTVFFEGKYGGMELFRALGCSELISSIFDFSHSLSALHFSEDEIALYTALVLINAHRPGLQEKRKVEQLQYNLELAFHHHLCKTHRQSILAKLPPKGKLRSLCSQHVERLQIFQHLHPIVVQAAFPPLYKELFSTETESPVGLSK

Ki [1] [nM] | IC50 [2] [nM] | Compound
< 100 | < 100 | CCS(=O)(=O)c1ccc(CC(=O)Nc2cnc3c(c2)CN(Cc2ccc(C(F)(F)F)cc2)[C@H]3C(C)C)cc1 [Compound 58]
< 100 | < 100 | CCS(=O)(=O)c1ccc(CNC(=O)c2cnc3c(c2)CN(Cc2ccc(OC(F)F)cc2)[C@H]3C(C)C)cc1 [Compound 5]
100 to 1000 | > 1000 | CC(C)[C@H]1c2ncc(C(=O)NCc3ccc(C#N)cn3)cc2CN1Cc1ccc(C(F)(F)F)cc1 [Compound 155]
< 100 | 100 to 1000 | CC(C)[C@H]1c2ncc(C(=O)NC[C@H]3CC[C@H](CC(=O)O)CC3)cc2CN1Cc1ccc(C(F)(F)F)cc1 [Compound 139]
< 100 | < 100 | CCS(=O)(=O)c1ccc(CNC(=O)c2cnc3c(c2)[C@H](C)N(Cc2ccc(C(F)(F)F)cc2)[C@H]3C(C)C)cc1 [Compound 31]
< 100 | > 1000 | CCS(=O)(=O)c1ccc(CNC(=O)c2cnc3c(c2)CN(C(=O)OCc2ccc(Cl)cc2)[C@H]3C(C)C)cc1 [Compound 25]
< 100 | < 100 | CC(C)[C@H]1c2ncc(C(=O)NCc3ccc(S(C)(=O)=O)cc3)cc2CN1Cc1ccc(Cl)cc1 [Compound 17]
< 100 | < 100 | CNS(=O)(=O)c1ccc(CNC(=O)c2cnc3c(c2)CN(Cc2ccc(C(F)(F)F)cc2)[C@H]3C(C)C)cc1 [Compound 67]
< 100 | < 100 | CCS(=O)(=O)c1ccc(CNC(=O)c2cnc3c(c2)CN(Cc2ccc(C#N)cc2)[C@H]3C(C)C)cc1 [Compound 4]
